Activity calls are given as the source filed them. No cut-off for these calls is given here.
Assays:
SK-N-BE(2)-C = experiment: Activation of HIF-alpha transcriptional activity in human SK-N-BE(2)-C expressing HRE-NLuc reporter system assessed as compound concentration require for 5 fold increase in NLuc luciferase activity incubated for 24 hrs by Nano-Glo luciferase assay; type: cell-based
[1] = Cytotoxicity against human SK-N-BE(2)-C expressing HRE-NLuc reporter system assessed as reduction in cell viability incubated for 24 hrs by CCK-8 assay; type: toxicity, cell-based; conditions: SK-N-BE(2)-C cells expressing HRE-NLuc reporter system, read-out: LC50
[2] = molecular target: Endothelial PAS domain-containing protein 1 (Homo sapiens) (UniProt Q99814); experiment: Induction of HIF-2alpha stabilization in human Hep3B cells assessed as […] at 1 to 100 uM incubated for 24 hrs by immunoblot analysis; type: cell-based; conditions: filed as activator, dose 1-100 µM, DDE = dose-dependent effect
Chain of Endothelial PAS domain-containing protein 1 (Homo sapiens) (Q99814 whole entry, the tested form may be a part): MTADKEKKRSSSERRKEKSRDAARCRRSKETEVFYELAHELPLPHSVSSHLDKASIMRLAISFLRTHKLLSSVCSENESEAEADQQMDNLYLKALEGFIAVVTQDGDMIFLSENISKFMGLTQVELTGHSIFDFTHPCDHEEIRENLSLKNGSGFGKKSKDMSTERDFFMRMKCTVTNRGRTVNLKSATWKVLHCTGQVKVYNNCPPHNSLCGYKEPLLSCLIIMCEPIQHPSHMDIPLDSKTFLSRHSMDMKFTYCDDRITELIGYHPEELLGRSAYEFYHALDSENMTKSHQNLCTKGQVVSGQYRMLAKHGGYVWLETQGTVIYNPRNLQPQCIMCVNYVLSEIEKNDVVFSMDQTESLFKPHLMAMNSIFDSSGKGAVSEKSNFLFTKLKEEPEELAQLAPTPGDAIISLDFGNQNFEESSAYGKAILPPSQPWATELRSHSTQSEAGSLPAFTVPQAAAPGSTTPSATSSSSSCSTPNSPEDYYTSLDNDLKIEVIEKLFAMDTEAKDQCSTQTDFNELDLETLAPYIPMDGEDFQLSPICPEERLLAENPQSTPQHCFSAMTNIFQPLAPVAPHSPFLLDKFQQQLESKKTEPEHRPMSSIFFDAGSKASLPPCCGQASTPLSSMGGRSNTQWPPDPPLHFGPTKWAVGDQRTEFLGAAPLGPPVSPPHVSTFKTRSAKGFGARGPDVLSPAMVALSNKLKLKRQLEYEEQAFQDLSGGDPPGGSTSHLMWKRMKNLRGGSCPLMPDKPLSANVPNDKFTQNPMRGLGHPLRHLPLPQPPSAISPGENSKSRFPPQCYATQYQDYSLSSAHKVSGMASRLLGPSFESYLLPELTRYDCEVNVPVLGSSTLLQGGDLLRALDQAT

[3] = molecular target: Hypoxia-inducible factor 1-alpha (Homo sapiens) (UniProt Q16665); experiment: Induction of HIF-1alpha stabilization in human Hep3B cells assessed as HIF-1alpha level at 1 to 100 uM incubated for 24 hrs by immunoblot analysis; type: cell-based; conditions: filed as activator, dose 1-100 µM, DDE = dose-dependent effect
Chain of Hypoxia-inducible factor 1-alpha (Homo sapiens) (Q16665 whole entry, looked up): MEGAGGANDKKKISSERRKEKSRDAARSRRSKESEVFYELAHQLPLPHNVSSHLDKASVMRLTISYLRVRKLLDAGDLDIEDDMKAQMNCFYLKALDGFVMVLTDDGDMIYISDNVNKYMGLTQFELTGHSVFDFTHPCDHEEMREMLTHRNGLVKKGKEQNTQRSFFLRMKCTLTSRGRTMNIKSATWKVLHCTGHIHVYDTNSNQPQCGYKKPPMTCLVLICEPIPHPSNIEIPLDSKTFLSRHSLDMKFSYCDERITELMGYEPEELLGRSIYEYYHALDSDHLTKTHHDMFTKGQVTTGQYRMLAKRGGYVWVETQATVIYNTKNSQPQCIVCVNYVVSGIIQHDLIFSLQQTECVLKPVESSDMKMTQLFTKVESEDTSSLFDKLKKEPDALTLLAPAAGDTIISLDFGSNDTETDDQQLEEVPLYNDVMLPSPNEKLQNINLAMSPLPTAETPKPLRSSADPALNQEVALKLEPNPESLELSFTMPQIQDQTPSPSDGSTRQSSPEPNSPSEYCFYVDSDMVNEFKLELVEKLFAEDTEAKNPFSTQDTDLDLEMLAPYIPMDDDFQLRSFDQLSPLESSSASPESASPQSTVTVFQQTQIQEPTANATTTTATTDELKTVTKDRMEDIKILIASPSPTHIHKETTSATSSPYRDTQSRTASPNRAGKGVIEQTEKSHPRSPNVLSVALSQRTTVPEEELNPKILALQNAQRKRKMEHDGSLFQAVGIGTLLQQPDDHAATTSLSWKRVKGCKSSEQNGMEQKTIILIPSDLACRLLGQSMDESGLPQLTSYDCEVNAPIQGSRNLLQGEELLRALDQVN

Hep3B [4] = experiment: Activation of HIF dependent pathway in human Hep3B cells assessed as increase in EPO mRNA expression level at 10 to 100 uM incubated for 24 hrs by RT-qPCR analysis; type: cell-based; conditions: filed as activator, dose 10-100 µM
[5] = molecular target: Endothelial PAS domain-containing protein 1 (Homo sapiens) (UniProt Q99814); experiment: Induction of HIF-2alpha stabilization in human Hep3B cells assessed as […] at 16 to 1000 nM incubated for 24 hrs by immunoblot analysis; type: cell-based; conditions: filed as activator, dose 16-1000 nM, DDE = dose-dependent effect
Hep3B [6] = experiment: Activation of HIF dependent pathway in human Hep3B cells assessed as increase in CA9 mRNA expression level at 10 to 100 uM incubated for 24 hrs by RT-qPCR analysis; type: cell-based; conditions: filed as activator, dose 10-100 µM
[7] = molecular target: Hypoxia-inducible factor 1-alpha (Homo sapiens) (UniProt Q16665); experiment: Induction of HIF-1alpha stabilization in human Hep3B cells assessed as HIF-1alpha level at 16 to 1000 nM incubated for 24 hrs by immunoblot analysis; type: cell-based; conditions: filed as activator, dose 16-1000 nM, DDE = dose-dependent effect

CC(=O)N1NC(=C2C(=O)N(C)C(=O)N(C)C2=O)CC1c1ccc(Cl)cc1 (centres undefined)
Activity (SK-N-BE(2)-C; filed as activator): 9.1 µM
CC50 at 24 h [1]: > 100 µM

COc1cccc(C2CC(=C3C(=O)N(C)C(=O)N(C)C3=O)NN2C(C)=O)c1Cl (centres undefined)
Activity (SK-N-BE(2)-C; filed as activator): 26.1 µM
CC50 at 24 h [1]: > 100 µM

CC(C)C(=O)N1NC(=C2C(=O)N(C3CCCCC3)C(=O)N(C3CCCCC3)C2=O)CC1c1ccccc1 (centres undefined)
Activity (SK-N-BE(2)-C; filed as activator): 0.364 µM
CC50 at 24 h [1]: > 100 µM

CC(=O)N1NC(=C2C(=O)N(C)C(=O)N(C)C2=O)CC1c1ccc2ccccc2c1 (centres undefined)
Activity (SK-N-BE(2)-C; filed as activator): 7.67 µM
CC50 at 24 h [1]: > 100 µM

CCC(=O)N1NC(=C2C(=O)N(C)C(=O)N(C)C2=O)CC1c1ccccc1 (centres undefined)
Activity (SK-N-BE(2)-C; filed as activator): 6.53 µM
CC50 at 24 h [1]: > 100 µM

CCCCCCCCCC(=O)N1NC(=C2C(=O)N(C3CCCCC3)C(=O)N(C3CCCCC3)C2=O)CC1c1ccccc1 (centres undefined)
Activity (SK-N-BE(2)-C): > 100 µM
CC50 at 24 h [1]: > 100 µM

Cc1nc(C(=O)NCC(=O)O)c(O)c2ccc(Oc3ccccc3)cc12
Activity [2]: Dde
Activity [3]: Dde

CCC(=O)N1NC(=C2C(=O)N(C)C(=O)N(C)C2=O)CC1c1ccc(-c2ccccc2)cc1 (centres undefined)
Activity (SK-N-BE(2)-C; filed as activator): 3.87 µM
CC50 at 24 h [1]: > 100 µM

CC(=O)N1NC(=C2C(=O)N(C)C(=O)N(C)C2=O)CC1c1ccccc1 (centres undefined)
Activity (SK-N-BE(2)-C; filed as activator): 14.3 µM
Activity [2]: Dde
CC50 at 24 h [1]: > 100 µM
Activity [3]: Dde

CCCCCCCCc1ccc(C2CC(=C3C(=O)N(C)C(=O)N(C)C3=O)NN2C(C)=O)cc1 (centres undefined)
Activity (SK-N-BE(2)-C; filed as activator): 12.9 µM
CC50 at 24 h [1]: > 100 µM

CC(=O)N1NC(=C2C(=O)N(C)C(=O)N(C)C2=O)CC1c1ccc(Oc2ccccc2)cc1 (centres undefined)
Activity (SK-N-BE(2)-C; filed as activator): 6.82 µM
CC50 at 24 h [1]: > 100 µM

CCCC(=O)N1NC(=C2C(=O)N(C)C(=O)N(C)C2=O)CC1c1ccccc1 (centres undefined)
Activity (SK-N-BE(2)-C; filed as activator): 4.85 µM
CC50 at 24 h [1]: > 100 µM

CC(=O)N1NC(=C2C(=O)N(C3CCCCC3)C(=O)N(C3CCCCC3)C2=O)CC1c1ccccc1 (centres undefined)
Activity (SK-N-BE(2)-C; filed as activator): 0.533 µM
CC50 at 24 h [1]: > 100 µM

COc1ccc(C2CC(=C3C(=O)N(C)C(=O)N(C)C3=O)NN2C(C)=O)cc1 (centres undefined)
Activity (SK-N-BE(2)-C; filed as activator): 19.5 µM
CC50 at 24 h [1]: > 100 µM

CCCCCC(=O)N1NC(=C2C(=O)N(C3CCCCC3)C(=O)N(C3CCCCC3)C2=O)CC1c1ccccc1 (centres undefined)
Activity (SK-N-BE(2)-C; filed as activator): 2.41 µM
CC50 at 24 h [1]: > 100 µM

CC(=O)N1NC(=C2C(=O)N(C)C(=O)N(C)C2=O)CC1c1ccc(-c2ccccc2)cc1 (centres undefined)
Activity (SK-N-BE(2)-C; filed as activator): 3.88 µM
CC50 at 24 h [1]: > 100 µM

CCCCCCCCCC(=O)N1NC(=C2C(=O)N(C)C(=O)N(C)C2=O)CC1c1ccccc1 (centres undefined)
Activity (SK-N-BE(2)-C; filed as activator): 0.153 µM
CC50 at 24 h [1]: > 100 µM

CCCC(=O)N1NC(=C2C(=O)N(C3CCCCC3)C(=O)N(C3CCCCC3)C2=O)CC1c1ccccc1 (centres undefined)
Activity (Hep3B [4]): Active
Activity (SK-N-BE(2)-C; filed as activator): 0.441 µM
Activity [2]: Dde
Activity [5]: Dde
Activity (Hep3B [6]): Active
CC50 at 24 h [1]: > 100 µM
Activity [3]: Dde
Activity [7]: Dde

CCCCCC(=O)N1NC(=C2C(=O)N(C)C(=O)N(C)C2=O)CC1c1ccccc1 (centres undefined)
Activity (SK-N-BE(2)-C; filed as activator): 0.96 µM
CC50 at 24 h [1]: > 100 µM

CC(=O)N1NC(=C2C(=O)N(C)C(=O)N(C)C2=O)CC1c1ccc(C)cc1 (centres undefined)
Activity (SK-N-BE(2)-C; filed as activator): 5.84 µM
CC50 at 24 h [1]: > 100 µM

CC(=O)N1NC(=C2C(=O)N(C)C(=O)N(C)C2=O)CC1c1ccc(F)cc1 (centres undefined)
Activity (SK-N-BE(2)-C; filed as activator): 16.5 µM
CC50 at 24 h [1]: > 100 µM

CC(C)C(=O)N1NC(=C2C(=O)N(C)C(=O)N(C)C2=O)CC1c1ccccc1 (centres undefined)
Activity (SK-N-BE(2)-C; filed as activator): 8.55 µM
CC50 at 24 h [1]: > 100 µM

CCC(=O)N1NC(=C2C(=O)N(C3CCCCC3)C(=O)N(C3CCCCC3)C2=O)CC1c1ccccc1 (centres undefined)
Activity (SK-N-BE(2)-C; filed as activator): 0.126 µM
CC50 at 24 h [1]: > 100 µM
